According to publication PMC12185845, “How allosteric mutations control ligand binding in Lipocalin protein: odorant binding protein as a test case” (Cellular and Molecular Life Sciences: CMLS, 2025):
Substitutions are numbered along the chain they refer to.

Columns and labels:
Assay in all cases: isothermal titration calorimetry, single-site fit
Assay type in all cases: binding
rOBP1 (rOBP1-wt) [1] = target: T1, rOBP1 (rOBP1-wt) (Rattus norvegicus, UniProt P08937); conditions: 50 mM sodium phosphate, pH 7.5, 25 °C
T1 construct: gene Obp1f; S7
T1 sequence (P08937 16-172): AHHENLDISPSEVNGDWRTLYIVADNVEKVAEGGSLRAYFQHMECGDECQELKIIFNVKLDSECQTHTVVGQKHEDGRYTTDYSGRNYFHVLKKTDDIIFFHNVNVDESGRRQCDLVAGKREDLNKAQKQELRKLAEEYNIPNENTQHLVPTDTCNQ

rOBP1 (rOBP1-wt) [2] = target: T1, rOBP1 (rOBP1-wt); conditions: 50 mM sodium phosphate, pH 7.5, 25 °C; ligand up to the millimolar range; distal allosteric position
rOBP1 (rOBP1-wt) [3] = target: T2, rOBP1 (rOBP1-wt) (Rattus norvegicus, UniProt P08937, S50C/Y98C, form not given); conditions: 50 mM sodium phosphate, pH 7.5, 25 °C
T2 construct: gene Obp1f; S7
T2 sequence (P08937 16-172 S50C/Y98C): T1 sequence (P08937 16-172) with S35C, Y83C

Compound: C=CCc1ccc(O)c(OC)c1 [eugenol]
- Kd (rOBP1 (rOBP1-wt) [1]): 60 nM
- binding (ITC) (rOBP1 (rOBP1-wt) [2]): indicating a complete loss of affinity for all ligands
- binding (ITC) (rOBP1 (rOBP1-wt) [3]): total loss of binding for the three odorants as no heat change was observed

Compound: Cc1ccc(C(C)C)c(O)c1 [thymol]
- Kd (rOBP1 (rOBP1-wt) [1]): 441 nM
- binding (ITC) (rOBP1 (rOBP1-wt) [2]): indicating a complete loss of affinity for all ligands
- binding (ITC) (rOBP1 (rOBP1-wt) [3]): total loss of binding for the three odorants as no heat change was observed
